According to patent US12545652B2, “Crystalline forms of a TYK2 inhibitor” (Sareum Limited, priority 2020, dated 2026):
Converted amounts (≈) assume the structure as drawn.

Assays:
Assay type in all cases: physicochemical
[1] = Compression stability test (10×10^4N force)
Experimental: Compression stability tests were carried out on samples from two batches of crystalline Form A and samples from two batches of Crystalline Form B. One pair of samples of Form A and Form B was subjected to compression under 10×10^4N force for 23 and 23¾ hours respectively to assess the impact upon form fate and chemical stability.
The other pair of samples of Form A and Form B was subjected to similar compression pressures over an extended duration of 7 days to assess the impact of prolonged compression force upon form fate and chemical stability.

[2] = Dynamic vapour sorption (DVS); conditions: 25° C.
Experimental: Sorption isotherms were obtained using a Hiden Isochema moisture sorption analyser (model IGAsorp), controlled by IGAsorp Systems Software V6.50.48. The sample was maintained at a constant temperature (25° C.) by the instrument controls. The humidity was controlled by mixing streams of dry and wet nitrogen, with a total flow of 250 ml·min^−1. The instrument was verified for relative humidity content by measuring three calibrated Rotronic salt solutions (10-50-88%). The weight change of the sample was monitored as a function of humidity by a microbalance (accuracy +/−0.005 mg). A defined amount of sample was placed in a tared mesh stainless steel basket under ambient conditions. A full experimental cycle typically consisted of three scans (sorption, desorption and sorption) at a constant temperature (25° C.) and 10% RH intervals over a 0-90% range (60 minutes for each humidity level).

[3] = Rapidly cooled, reverse anti-solvent addition crystallisation at −10° C., observations and form fate by XRPD; conditions: for Observation: −10° C., 30 vol. anti-solvent; for Crystalline Form fate by XRPD: Reverse addition to anti-solvent at −10° C.
Experimental: Anti-solvent crystallisation was carried out by dissolving 2-(2,6-dichlorophenyl)-5-[4-(1,1-dioxo-1,4-thiazinane-4-carbonyl)anilino]oxazole-4-carboxamide in a solvent with heating, clarifying the solution and adding cold anti-solvent using the following method.
2-(2,6-dichlorophenyl)-5-[4-(1,1-dioxo-1,4-thiazinane-4-carbonyl)anilino]oxazole-4-carboxamide, 4×153-155 mg, was weighed into four crystallisation tubes and a different solvent (see Table 10) was charged into each. The mixtures were heated to 60° C. to achieve dissolution and then clarified.
Three anti-solvents (see Table 10), 1.5 ml, were each charged to four crystallisation tubes and cooled to −10° C.
The clarified solutions of 2-(2,6-dichlorophenyl)-5-[4-(1,1-dioxo-1,4-thiazinane-4-carbonyl)anilino]oxazole-4-carboxamide at 60° C. were charged to the cold anti-solvents in aliquots containing ca. 50 mg of the compound (into ca. 30 vol. anti-solvent) and immediate observations were noted.
The resulting mixtures were equilibrated at −10° C. for ca. 22 hours, observations were made and the solids were isolated. All isolated solids were dried in vacuo under air for ca. 20 minutes and then dried in vacuo at 45° C. for 23½ hours.

[4] = Solubility at 25° C. by HPLC of filtrates after equilibration of Form A in solvents; conditions: for solubility: 25 °C, organic solvent or mixture, thermodynamic from solid

SMILES: NC(=O)c1nc(-c2c(Cl)cccc2Cl)oc1Nc1ccc(C(=O)N2CCS(=O)(=O)CC2)cc1 [Form A, 2-(2,6-dichlorophenyl)-5-[4-(1,1-dioxo-1,4-thiazinane-4-carbonyl)anilino]oxazole-4-carboxamide]
- HPLC assessment post-compression (chemical stability) ([1]; compression for 7 days): significant chemical degradation
- XRPD examination of solids isolated post-compression (form fate) ([1]; compression for both ca. 1 and 7 days): diffraction pattern matching the input Form A but of reduced diffraction resolution
- HPLC assessment post-compression (chemical stability) ([1]; compression for ca. 1 day (23 / 23¾ hours), 10×10^4N): no discernible chemical degradation
- DVS total weight gain upon sorption ([2]; from 0 to 90% RH): ca. 3.25 wt %
- DVS weight reduction upon the first desorption ([2]; from 50 to 0% RH): ca. 2.75 wt %
- Observation ([3]; ID A1, THF/water, 4:1 10 vol., Heptane, 5 Hrs): Suspension
- Observation ([3]; ID A1, THF/water, 4:1 10 vol., Heptane, 22 Hrs): Suspension
- Observation ([3]; ID A1, THF/water, 4:1 10 vol., Heptane, Immediate): Gum
- Observation ([3]; ID A2, THF/water, 4:1 10 vol., Benzotrifluoride, 5 Hrs): Suspension
- Observation ([3]; ID A2, THF/water, 4:1 10 vol., Benzotrifluoride, 22 Hrs): Suspension
- Observation ([3]; ID A2, THF/water, 4:1 10 vol., Benzotrifluoride, Immediate): Suspension
- Observation ([3]; ID A3, THF/water, 4:1 10 vol., 2-Chlorobutane, 5 Hrs): Suspension
- Observation ([3]; ID A3, THF/water, 4:1 10 vol., 2-Chlorobutane, 22 Hrs): Suspension
- Observation ([3]; ID A3, THF/water, 4:1 10 vol., 2-Chlorobutane, Immediate): Suspension
- Observation ([3]; ID B1, THF 25 vol., Heptane, 5 Hrs): Suspension
- Observation ([3]; ID B1, THF 25 vol., Heptane, 22 Hrs): Suspension
- Observation ([3]; ID B1, THF 25 vol., Heptane, Immediate): Suspension
- Observation ([3]; ID B2, THF 25 vol., Benzotrifluoride, 5 Hrs): Suspension
- Observation ([3]; ID B2, THF 25 vol., Benzotrifluoride, 22 Hrs): Suspension
- Observation ([3]; ID B2, THF 25 vol., Benzotrifluoride, Immediate): Suspension
- Observation ([3]; ID B3, THF 25 vol., 2-Chlorobutane, 5 Hrs): Suspension
- Observation ([3]; ID B3, THF 25 vol., 2-Chlorobutane, 22 Hrs): Suspension
- Observation ([3]; ID B3, THF 25 vol., 2-Chlorobutane, Immediate): Suspension
- Observation ([3]; ID C1, Nitromethane 50 vol., Heptane, 5 Hrs): Bi. Susp.
- Observation ([3]; ID C1, Nitromethane 50 vol., Heptane, 22 Hrs): Bi. Susp.
- Observation ([3]; ID C1, Nitromethane 50 vol., Heptane, Immediate): Immiscible
- Observation ([3]; ID C2, Nitromethane 50 vol., Benzotrifluoride, 5 Hrs): Solution
- Observation ([3]; ID C2, Nitromethane 50 vol., Benzotrifluoride, 22 Hrs): Suspension
- Observation ([3]; ID C2, Nitromethane 50 vol., Benzotrifluoride, Immediate): Solution
- Observation ([3]; ID C3, Nitromethane 50 vol., 2-Chlorobutane, 5 Hrs): Solution
- Observation ([3]; ID C3, Nitromethane 50 vol., 2-Chlorobutane, 22 Hrs): Haze
- Observation ([3]; ID C3, Nitromethane 50 vol., 2-Chlorobutane, Immediate): Solution
- Observation ([3]; ID D1, MeCN/water, 4:1 55 vol., Heptane, 5 Hrs): Bi. Susp.
- Observation ([3]; ID D1, MeCN/water, 4:1 55 vol., Heptane, 22 Hrs): Bi. Susp.
- Observation ([3]; ID D1, MeCN/water, 4:1 55 vol., Heptane, Immediate): Immiscible
- Observation ([3]; ID D2, MeCN/water, 4:1 55 vol., Benzotrifluoride, 5 Hrs): Suspension
- Observation ([3]; ID D2, MeCN/water, 4:1 55 vol., Benzotrifluoride, 22 Hrs): Suspension
- Observation ([3]; ID D2, MeCN/water, 4:1 55 vol., Benzotrifluoride, Immediate): Haze
- Observation ([3]; ID D3, MeCN/water, 4:1 55 vol., 2-Chlorobutane, 5 Hrs): Suspension
- Observation ([3]; ID D3, MeCN/water, 4:1 55 vol., 2-Chlorobutane, 22 Hrs): Suspension
- Observation ([3]; ID D3, MeCN/water, 4:1 55 vol., 2-Chlorobutane, Immediate): Haze
- Crystalline Form fate by XRPD ([3]; MeCN/water, 4:1 55 vol., 2-Chlorobutane): Form B
- Crystalline Form fate by XRPD ([3]; MeCN/water, 4:1 55 vol., Benzotrifluoride): Form B
- Crystalline Form fate by XRPD ([3]; MeCN/water, 4:1 55 vol., Heptane): Form A
- Crystalline Form fate by XRPD ([3]; Nitromethane 50 vol., 2-Chlorobutane): Form B/C mix
- Crystalline Form fate by XRPD ([3]; Nitromethane 50 vol., Benzotrifluoride): Form C
- Crystalline Form fate by XRPD ([3]; Nitromethane 50 vol., Heptane): Form C
- Crystalline Form fate by XRPD ([3]; THF 25 vol., 2-Chlorobutane): Low cryst. Form C
- Crystalline Form fate by XRPD ([3]; THF 25 vol., Benzotrifluoride): Low cryst. Form B
- Crystalline Form fate by XRPD ([3]; THF 25 vol., Heptane): Low cryst. Form B +
- Crystalline Form fate by XRPD ([3]; THF/water, 4:1 10 vol., 2-Chlorobutane): Low cryst. Form B
- Crystalline Form fate by XRPD ([3]; THF/water, 4:1 10 vol., Benzotrifluoride): Low cryst. Form B
- Crystalline Form fate by XRPD ([3]; THF/water, 4:1 10 vol., Heptane): Low cryst. Form B
- Solubility at 25° C. ([4]; 2-Chlorobutane): 290 µg/mL (≈ 0.569 mM)
- solubility ([4]; 4:1 IPA/water, 4:1 IPA/water): 7650 µg/mL (≈ 15 mM)
- solubility ([4]; 4:1 MeCN/water, 4:1 MeCN/water): 19800 µg/mL (≈ 38.8 mM)
- Solubility at 25° C. ([4]; 4:1 THF/water): >67000 µg/mL
- Solubility at 25° C. ([4]; Anisole): 10610 µg/mL (≈ 20.8 mM)
- solubility ([4]; CPME): 1870 µg/mL (≈ 3.67 mM)
- Solubility at 25° C. ([4]; Cyclohexane): 10 µg/mL (≈ 0.0196 mM)
- Solubility at 25° C. ([4]; DCM): 22830 µg/mL (≈ 44.8 mM)
- solubility ([4]; EtOAc): 6640 µg/mL (≈ 13 mM)
- solubility ([4]; EtOH): 5200 µg/mL (≈ 10.2 mM)
- solubility ([4]; IPA): 2450 µg/mL (≈ 4.81 mM)
- solubility ([4]; MEK): 6080 µg/mL (≈ 11.9 mM)
- solubility ([4]; MIBK): 7400 µg/mL (≈ 14.5 mM)
- solubility ([4]; MeCN): 9160 µg/mL (≈ 18 mM)
- solubility ([4]; MeOH): 2520 µg/mL (≈ 4.95 mM)
- Solubility at 25° C. ([4]; Nitromethane): 20520 µg/mL (≈ 40.3 mM)
- Solubility at 25° C. ([4]; TBME): 700 µg/mL (≈ 1.37 mM)
- Solubility at 25° C. ([4]; THF): 33300 µg/mL (≈ 65.4 mM)
- Solubility at 25° C. ([4]; Water): 60 µg/mL (≈ 0.118 mM)
- solubility ([4]; benzotrifluoride): 160 µg/mL (≈ 0.314 mM)
- solubility ([4]; chlorobenzene): 1870 µg/mL (≈ 3.67 mM)
- solubility ([4]; iPrOAc): 6960 µg/mL (≈ 13.7 mM)
- solubility ([4]; toluene): 1120 µg/mL (≈ 2.2 mM)
